Source: ChEMBL document CHEMBL4665846, “Piperlonguminine and Piperine Analogues as TrxR Inhibitors that Promote ROS and Autophagy and Regulate p38 and Akt/mTOR Signaling” (J Nat Prod, 2020)
Active and inactive are the calls of the source. The rule behind the calls is not given here.

Legend:
[1] = test system: Bel7402/5-FU; assay: Cytotoxicity against human BEL-7402/5-FU cells assessed as reduction in cell viability after 72 hrs by MTT assay; type: functional, cell-based
[2] = test system: HCT-116; assay: Cytotoxicity against human HCT-116 cells assessed as reduction in cell viability after 72 hrs by MTT assay; type: functional, cell-based; conditions: HCT-116, 72 h
[3] = test system: HepG2; assay: Cytotoxicity against human HepG2 cells assessed as reduction in cell viability after 72 hrs by MTT assay; type: functional, cell-based; conditions: HepG2, 72 h
[4] = test system: HGC-27; assay: Cytotoxicity against human HGC-27 cells assessed as reduction in cell viability after 72 hrs by MTT assay; type: functional, cell-based; conditions: HGC-27, 72 h
[5] = test system: Bel-7402; assay: Cytotoxicity against human Bel-7402 cells assessed as reduction in cell viability after 72 hrs by MTT assay; type: functional, cell-based; conditions: for IC50: Bel-7402, 72 h
[6] = molecular target: T1, Thioredoxin reductase 1, cytoplasmic (Homo sapiens, UniProt Q16881); assay: Inhibition of TrxR in human BEL-7402/5-FU cells by colorimetric assay; type: cell-based
T1 sequence (Q16881 whole entry): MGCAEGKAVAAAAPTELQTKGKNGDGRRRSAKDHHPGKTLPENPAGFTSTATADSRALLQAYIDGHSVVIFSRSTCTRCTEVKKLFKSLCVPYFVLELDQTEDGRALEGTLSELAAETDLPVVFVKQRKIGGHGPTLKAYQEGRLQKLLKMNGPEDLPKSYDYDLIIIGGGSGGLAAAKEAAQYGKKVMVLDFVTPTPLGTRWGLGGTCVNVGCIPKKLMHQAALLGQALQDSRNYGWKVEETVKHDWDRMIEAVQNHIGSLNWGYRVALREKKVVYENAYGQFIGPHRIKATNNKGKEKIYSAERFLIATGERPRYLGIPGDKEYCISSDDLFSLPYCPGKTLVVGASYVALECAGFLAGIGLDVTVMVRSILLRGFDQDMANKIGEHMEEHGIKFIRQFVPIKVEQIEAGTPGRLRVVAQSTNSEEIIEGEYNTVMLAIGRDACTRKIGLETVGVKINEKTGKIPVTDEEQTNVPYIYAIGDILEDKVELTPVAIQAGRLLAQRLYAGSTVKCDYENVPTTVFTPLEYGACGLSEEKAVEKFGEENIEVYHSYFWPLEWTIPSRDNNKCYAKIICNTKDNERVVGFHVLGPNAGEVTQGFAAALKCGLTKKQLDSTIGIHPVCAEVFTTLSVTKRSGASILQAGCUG

[7] = test system: Bel7402/5-FU; assay: Induction of mitochondrial membrane potential loss in human BEL-7402/5-FU cells at 10 uM after 24 hrs by JC-1 staining based fluorescence microscopic method; type: functional, cell-based
[8] = test system: Bel7402/5-FU; assay: Potency index, ratio of piperlongumine IC50 to test compound IC50 for cytotoxicity against human BEL-7402/5-FU cells; type: functional
[9] = Selectivity ratio of IC50 for cytotoxicity against human L02 cells to IC50 for cytotoxicity against human Bel-7402 cells; type: toxicity, cell-based; conditions: L02 cells and Bel-7402 cells, read-out: Ratio IC50
[10] = test system: Bel7402/5-FU; assay: Induction of autophagy in human BEL-7402/5-FU cells assessed as up regulation of LC3-2 protein expression after 72 hrs by Western blot analysis; type: functional, cell-based; conditions: dose microM 0.32-2, time 72.0 hrs
[11] = Selectivity ratio of IC50 for cytotoxicity against human L02 cells to IC50 for cytotoxicity against human BEL-7402/5-FU cells
[12] = test system: Bel7402/5-FU; assay: Induction of autophagy in human BEL-7402/5-FU cells assessed as down regulation of LC3-1 protein expression after 72 hrs by Western blot analysis; type: functional, cell-based; conditions: dose microM 0.32-2, time 72.0 hrs
[13] = molecular target: Serine/threonine-protein kinase mTOR (Homo sapiens) (UniProt P42345); assay: Inhibition of mTOR phosphorylation in human BEL-7402/5-FU cells incubated for 72 hrs by Western blot analysis; type: cell-based; conditions: dose microM 0.32-2, time 72.0 hrs
[14] = test system: Bel7402/5-FU; assay: Induction of ROS generation in human BEL-7402/5-FU cells at 10 uM using H2O2 as substrate preincubated for 24 hrs followed by substrate addition and measured after 6 hrs by ROS-Glo assay relative to control; type: functional
[15] = molecular target: T2, MAP kinase p38 (Homo sapiens) (UniProt O15264+Q15759+Q16539+P53778); assay: Activation of p38 phosphorylation in human BEL-7402/5-FU cells incubated for 72 hrs by Western blot analysis; type: cell-based; conditions: filed as activator, dose microM 0.32-2, time 72.0 hrs
[16] = test system: Bel7402/5-FU; assay: Induction of mitochondrial membrane potential loss in human BEL-7402/5-FU cells at 1 uM after 24 hrs by JC-1 staining based fluorescence microscopic method relative to piperlongumine; type: functional
[17] = test system: Bel7402/5-FU; assay: Induction of autophagy in human BEL-7402/5-FU cells expressing mRFP-eGFP-LC3 assessed as autophagosomes at 0.8 to 2 uM after 24 hrs by confocal laser scanning microscopic method; type: functional, cell-based; conditions: dose microM 0.8-2, time 24.0 hrs
[18] = test system: HGC-27; assay: Potency index, ratio of piperlongumine IC50 to test compound IC50 for cytotoxicity against human HGC-27 cells; type: functional
[19] = test system: Bel7402/5-FU; assay: Induction of autophagy in human BEL-7402/5-FU cells assessed as up regulation of beclin-1 protein expression after 72 hrs by Western blot analysis; type: functional, cell-based; conditions: dose microM 0.32-2, time 72.0 hrs
[20] = test system: Bel7402/5-FU; assay: Induction of autophagy in human BEL-7402/5-FU cells expressing mRFP-eGFP-LC3 assessed as auto lysosomes at 0.8 to 2 uM after 24 hrs by confocal laser scanning microscopic method; type: functional, cell-based; conditions: dose microM 0.8-2, time 24.0 hrs
[21] = test system: Bel7402/5-FU; assay: Induction of autophagy in human BEL-7402/5-FU cells assessed as down regulation of P62 protein expression after 72 hrs by Western blot analysis; type: functional, cell-based; conditions: dose microM 0.32-2, time 72.0 hrs
[22] = molecular target: T3, Serine/threonine-protein kinase AKT (Homo sapiens) (UniProt P31751+Q9Y243+P31749); assay: Inhibition of AKT phosphorylation in human BEL-7402/5-FU cells incubated for 72 hrs by Western blot analysis; type: cell-based; conditions: dose microM 0.32-2, time 72.0 hrs
[23] = molecular target: T4, Thioredoxin reductase 1, cytoplasmic (Homo sapiens) (UniProt Q16881); assay: Potency index, ratio of piperlongumine IC50 to test compound IC50 for inhibition of TrXr in human BEL-7402/5-FU cells; type: cell-based
T4 sequence (whole entry): T1 sequence (Q16881 whole entry)

[24] = molecular target: T3, Serine/threonine-protein kinase AKT (Homo sapiens); assay: Inhibition of AKT phosphorylation in human BEL-7402/5-FU cells at 2 uM incubated for 72 hrs by Western blot analysis; type: cell-based
[25] = test system: Bel7402/5-FU; assay: Induction of autophagy in human BEL-7402/5-FU cells expressing mRFP-eGFP-LC3 assessed as autophagosomes at 2 uM after 24 hrs by confocal laser scanning microscopic method; type: functional, cell-based
[26] = test system: Bel7402/5-FU; assay: Induction of autophagy in human BEL-7402/5-FU cells expressing mRFP-eGFP-LC3 assessed as auto lysosomes at 2 uM after 24 hrs by confocal laser scanning microscopic method; type: functional, cell-based
[27] = molecular target: Serine/threonine-protein kinase mTOR (Homo sapiens) (UniProt P42345); assay: Inhibition of mTOR phosphorylation in human BEL-7402/5-FU cells at 2 uM incubated for 72 hrs by Western blot analysis; type: cell-based
[28] = molecular target: T2, MAP kinase p38 (Homo sapiens); assay: Activation of p38 phosphorylation in human BEL-7402/5-FU cells at 2 uM incubated for 72 hrs by Western blot analysis; type: cell-based; conditions: filed as activator

T3 sequence (P31749 whole entry, looked up): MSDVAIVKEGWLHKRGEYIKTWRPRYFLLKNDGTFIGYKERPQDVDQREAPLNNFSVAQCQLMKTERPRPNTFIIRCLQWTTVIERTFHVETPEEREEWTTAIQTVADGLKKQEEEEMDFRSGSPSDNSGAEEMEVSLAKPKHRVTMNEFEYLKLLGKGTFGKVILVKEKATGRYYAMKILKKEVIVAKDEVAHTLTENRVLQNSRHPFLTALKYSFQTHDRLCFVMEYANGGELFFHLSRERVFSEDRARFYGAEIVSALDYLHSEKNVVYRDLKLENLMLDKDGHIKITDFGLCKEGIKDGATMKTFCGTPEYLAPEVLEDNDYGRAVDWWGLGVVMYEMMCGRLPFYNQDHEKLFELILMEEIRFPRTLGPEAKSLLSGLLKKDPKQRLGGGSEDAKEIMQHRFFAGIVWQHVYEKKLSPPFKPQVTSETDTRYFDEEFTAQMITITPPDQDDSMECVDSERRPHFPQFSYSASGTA
T3 sequence (P31751 whole entry, looked up): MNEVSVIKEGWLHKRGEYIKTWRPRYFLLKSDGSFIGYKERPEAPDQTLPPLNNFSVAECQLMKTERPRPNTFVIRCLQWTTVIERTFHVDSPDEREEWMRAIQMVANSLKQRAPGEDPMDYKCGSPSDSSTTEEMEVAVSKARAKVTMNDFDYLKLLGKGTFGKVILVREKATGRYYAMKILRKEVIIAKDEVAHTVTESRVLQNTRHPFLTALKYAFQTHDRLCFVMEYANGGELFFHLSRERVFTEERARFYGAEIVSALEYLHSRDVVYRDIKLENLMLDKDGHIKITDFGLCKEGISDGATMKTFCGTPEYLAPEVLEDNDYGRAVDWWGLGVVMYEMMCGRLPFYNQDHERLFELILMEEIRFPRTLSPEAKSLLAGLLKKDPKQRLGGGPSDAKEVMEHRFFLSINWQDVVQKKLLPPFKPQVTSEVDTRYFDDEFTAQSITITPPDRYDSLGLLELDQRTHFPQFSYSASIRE
T3 sequence (Q9Y243 whole entry, looked up): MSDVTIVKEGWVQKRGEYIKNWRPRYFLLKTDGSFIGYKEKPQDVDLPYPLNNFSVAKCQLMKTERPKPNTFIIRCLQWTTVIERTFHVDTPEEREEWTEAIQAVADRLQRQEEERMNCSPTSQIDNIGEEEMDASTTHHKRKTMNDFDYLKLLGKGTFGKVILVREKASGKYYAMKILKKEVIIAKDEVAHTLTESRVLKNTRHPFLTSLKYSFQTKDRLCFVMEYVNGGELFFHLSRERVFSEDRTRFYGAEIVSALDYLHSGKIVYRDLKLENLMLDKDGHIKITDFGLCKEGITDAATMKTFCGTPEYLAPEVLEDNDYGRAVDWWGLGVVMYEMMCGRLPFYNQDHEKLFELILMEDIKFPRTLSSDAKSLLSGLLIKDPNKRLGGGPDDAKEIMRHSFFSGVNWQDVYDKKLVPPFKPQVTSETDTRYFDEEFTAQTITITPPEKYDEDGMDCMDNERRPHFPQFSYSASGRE

SMILES	IC50 [1]	IC50 [2]	IC50 [3]	IC50 [4]	IC50 [5]	further results
O=C1C=CCC/C1=C\C(Br)=C\c1ccccc1	> 10 µM	> 10 µM	> 10 µM	> 10 µM	> 10 µM	
Cc1ccc(/C=C/C=C2\CCC=CC2=O)cc1	5.8 µM	7.2 µM	8.6 µM	8.1 µM	6.3 µM	
COc1cc(/C=C/C=C2\CCC=CC2=O)ccc1O	0.8 µM	0.9 µM	0.9 µM	1.2 µM	0.8 µM	Activity [1]: Dose-dependent effect; IC50 [6]: 0.2 µM; Activity [7]: Active; Ratio IC50 [8]: 10; selectivity ratio [9]: 6; Activity [10]: Dose-dependent effect; Ratio IC50 [11]: 6; Activity [12]: Dose-dependent effect; inhibition [13]: Dose-dependent effect; Activity [14]: 50%; Activity [15]: Dose-dependent effect; fold change (FC) [16]: 10; Activity [17]: Active; Ratio IC50 [18]: 7; Activity [19]: Dose-dependent effect; Activity [20]: Active; Activity [21]: Dose-dependent effect; inhibition [22]: Dose-dependent effect; Ratio IC50 [23]: 9; Activity [5]: Dose-dependent effect
COc1ccc(/C=C/C=C2\CCC=CC2=O)cc1	1.7 µM	2.1 µM	2.4 µM	3.2 µM	1.4 µM	IC50 [6]: 0.4 µM; Activity [7]: Active
O=C(/C=C/C=C/c1ccc2c(c1)OCO2)N1CCCCC1 [PIPERINE]			> 10 µM		> 10 µM	
O=C1C=CCC/C1=C\C=C\c1ccccc1	4.2 µM	5.4 µM	7.1 µM	4.5 µM	4.2 µM	
COc1ccccc1/C=C/C=C1\CCC=CC1=O	2.5 µM	2.8 µM	5.8 µM	3.1 µM	2.6 µM	
CC(=C\c1ccccc1)/C=C1\CCC=CC1=O	4.2 µM	4.8 µM	4.6 µM	5.2 µM	3.9 µM	
COc1cc(/C=C/C(=O)N2CCC=CC2=O)cc(OC)c1OC [PIPLARTINE]		6.9 µM		8.1 µM		inhibition [24]: Active; Activity [25]: Active; Activity [26]: Active; inhibition [27]: Active; Activity [28]: Active
O=C1C=CCC/C1=C\C=C\c1ccc(Br)cc1	4.3 µM	5.2 µM	6.1 µM	4.5 µM	3.6 µM	
CN(C)c1ccc(/C=C/C=C2\CCC=CC2=O)cc1	1 µM	1.2 µM	1.1 µM	1.5 µM	0.9 µM	IC50 [6]: 0.2 µM; Activity [7]: Active; Ratio IC50 [23]: 9
O=C1C=CCC/C1=C\C=C\c1ccccc1[N+](=O)[O-]	5.2 µM	6.2 µM	6.8 µM	4.4 µM	4.6 µM	
O=C1C=CCC/C1=C\C=C\c1ccc(F)cc1	1.9 µM	2.2 µM	2.9 µM	2.3 µM	1.8 µM	IC50 [6]: 0.6 µM; Activity [7]: Active
CC(=O)Oc1ccc(/C=C/C=C2\CCC=CC2=O)cc1	4.1 µM	4.6 µM	4.5 µM	4.9 µM	3.8 µM	
O=C1C=CCC/C1=C\C=C\c1ccc([N+](=O)[O-])cc1	4.5 µM	5 µM	4.9 µM	5.2 µM	4.2 µM	
O=C1C=CCC/C1=C\C=C\c1ccc(Cl)cc1	3.2 µM	3.5 µM	3.7 µM	4.8 µM	3.2 µM	
